Laboratory results taken from patent publication US11780826B2 (Amgen Inc., priority 2017, dated 2023).

tested on: Bovine cardiac myofibrils; experiment: In vitro model of dose-dependent myofibril ATPase modulation (AC1.4, pyruvate kinase/lactate dehydrogenase-coupled ATPase assay at pCa25); format: biochemical; conditions: concentration at which ATPase activity was 1.4-fold higher than the bottom of the dose curve, mean of a minimum of two independent tests
How it was run: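 Compound dilutions were premixed with myofibrils, coupling enzymes, EGTA and CaCl2, then the reaction was started with an equal volume carrying ATP (final 1 mM), NADH and PEP. ATP turnover was followed at 340 nm, and dose responses were fit to a four-parameter equation.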

Row | Compound | AC1.4
1 | COc1cc2c(cc1F)CCC2NC(=O)[C@H]1CCCN1C(=O)[C@H]1CCCN(S(=O)(=O)N2CC(C#N)C2)C1 (stereo partly drawn) [Example 622, (2R)-1-((S)-1-((3-cyanoazetidin-1-yl)sulfonyl)piperidine-3-carbonyl)-N-(5-fluoro-6-methoxy-2,3-dihydro-1H-inden-1-yl)pyrrolidine-2-carboxamide] | 3.9515 µM
2 | N#CC1CN(S(=O)(=O)N2CCC[C@H](C(=O)N3CCC[C@@H]3C(=O)NCc3c(F)c(F)cc(F)c3F)C2)C1 [Example 623, 1-(((3S)-1-((3-cyano-1-azetidinyl)sulfonyl)-3-piperidinyl)carbonyl)-N-(2,3,5,6-tetrafluorobenzyl)-D-prolinamide] | 3.975 µM
3 | CCC(NC(=O)[C@H]1CCCN1C(=O)[C@H]1CCCN(S(=O)(=O)N2CC(C#N)C2)C1)c1ccc(OC)cc1 (stereo partly drawn) [Example 625, (2R)-1-((S)-1-((3-cyanoazetidin-1-yl)sulfonyl)piperidine-3-carbonyl)-N-(1-(4-methoxyphenyl)propyl)pyrrolidine-2-carboxamide] | 4.01 µM
4 | NC(=O)[C@H]1C[C@H](S(=O)(=O)N2CCC[C@H](C(=O)N3CCC[C@@H]3C(=O)NCc3ccc(C(F)(F)F)cc3)C2)C1 [Example 626, 1-(((3S)-1-((trans-3-carbamoylcyclobutyl)sulfonyl)-3-piperidinyl)carbonyl)-N-(4-(trifluoromethyl)benzyl)-D-prolinamide] | 4.031 µM
5 | CC(C)(C)[C@@H](NC(=O)[C@H]1CCCN1C(=O)c1cccc(S(=O)(=O)N2CC(C#N)C2)c1)c1ccc(C(F)(F)F)cc1 [Example 627, 1-(3-((3-cyano-1-azetidinyl)sulfonyl)benzoyl)-N-((1R)-2,2-dimethyl-1-(4-(trifluoromethyl)phenyl)propyl)-D-prolinamide] | 4.037 µM
6 | CC[C@H](NC(=O)[C@H]1CCCN1C(=O)c1cccc(S(=O)(=O)N(C)C)c1)c1ccc(Cl)c(F)c1 [Example 629, N-((1S)-1-(4-chloro-3-fluorophenyl)propyl)-1-(3-(dimethylsulfamoyl)benzoyl)-D-prolinamide] | 4.051 µM
7 | CC[C@@H](NC(=O)[C@H]1CCCN1C(=O)c1cccc(S(C)(=O)=O)c1)c1ccc(C(F)(F)F)cc1F [Example 630, N-((1R)-1-(2-fluoro-4-(trifluoromethyl)phenyl)propyl)-1-(3-(methylsulfonyl)benzoyl)-D-prolinamide] | 3.9185 µM
8 | O=C(NCc1ccc(C(F)(F)F)cc1)[C@H]1CCCN1C(=O)[C@H]1CCCN(S(=O)(=O)N2CC(O)C2)C1 [Example 631, 1-(((3S)-1-((3-hydroxy-1-azetidinyl)sulfonyl)-3-piperidinyl)carbonyl)-N-(4-(trifluoromethyl)benzyl)-D-prolinamide] | 4.082 µM
9 | COc1cc(C(C)NC(=O)[C@H]2CCCN2C(=O)[C@H]2CCCN(S(=O)(=O)N3CC(C#N)C3)C2)ccc1OC(F)F (stereo partly drawn) [Example 632, (2R)-1-((S)-1-((3-cyanoazetidin-1-yl)sulfonyl)piperidine-3-carbonyl)-N-(1-(4-(difluoromethoxy)-3-methoxyphenyl)ethyl)pyrrolidine-2-carboxamide] | 4.0915 µM
10 | COc1ccc(F)cc1C(C)NC(=O)[C@H]1CCCN1C(=O)[C@H]1CCCN(S(=O)(=O)N2CC(C#N)C2)C1 (stereo partly drawn) [Example 633, (2R)-1-((S)-1-((3-cyanoazetidin-1-yl)sulfonyl)piperidine-3-carbonyl)-N-(1-(5-fluoro-2-methoxyphenyl)ethyl)pyrrolidine-2-carboxamide] | 4.0935 µM
11 | CN(C)S(=O)(=O)c1cccc(C(=O)N2CCC[C@@H]2C(=O)N[C@H](CO)c2ccc(Cl)c(F)c2)c1 [Example 634, N-((1S)-1-(4-chloro-3-fluorophenyl)-2-hydroxyethyl)-1-(3-(dimethylsulfamoyl)benzoyl)-D-prolinamide] | 4.1045 µM
12 | C[C@@H](NC(=O)[C@H]1CCCN1C(=O)c1cccc(S(=O)(=O)N2CC3(CC3)C2)c1)c1ccc(Cl)c(Cl)c1 [Example 635, 1-((3-(5-azaspiro[2.3]hex-5-ylsulfonyl)phenyl)carbonyl)-N-((1R)-1-(3,4-dichlorophenyl)ethyl)-D-prolinamide] | 4.1355 µM
13 | C[C@@H](NC(=O)[C@H]1CCCN1C(=O)c1cccc(S(C)(=O)=O)c1)c1cc(F)c(Cl)cc1F [Example 636, N-((1R)-1-(4-chloro-2,5-difluorophenyl)ethyl)-1-(3-(methylsulfonyl)benzoyl)-D-prolinamide] | 3.919 µM
14 | O=C(N[C@@H](c1cc(F)c(Cl)cc1F)C1COC1)[C@H]1C[C@@H](O)CN1C(=O)c1cncc(C(F)(F)F)c1 [Example 638, (4R)-N-((R)-(4-chloro-2,5-difluorophenyl)(3-oxetanyl)methyl)-4-hydroxy-1-((5-(trifluoromethyl)-3-pyridinyl)carbonyl)-D-prolinamide] | 4.1835 µM
15 | CN1CCN(S(=O)(=O)N2CC(C#N)C2)CC1C(=O)N1CCC[C@@H]1C(=O)NCc1ccc(C(F)(F)F)cc1 (stereo partly drawn) [Example 639, (2R)-1-(4-((3-cyanoazetidin-1-yl)sulfonyl)-1-methylpiperazine-2-carbonyl)-N-(4-(trifluoromethyl)benzyl)pyrrolidine-2-carboxamide] | 4.1855 µM
16 | CCc1ccnc(C(=O)N2[C@@H](C(=O)N[C@@H](c3cc(F)c(Cl)cc3F)C3CC3)C[C@H]3C[C@H]32)c1 [Example 640, (1R,3R,5R)-N-((R)-(4-chloro-2,5-difluorophenyl)(cyclopropyl)methyl)-2-((4-ethyl-2-pyridinyl)carbonyl)-2-azabicyclo[3.1.0]hexane-3-carboxamide] | 4.2315 µM
17 | O=C(N[C@@H](c1cc(F)c(Cl)cc1F)C1CC1)[C@H]1C[C@@H](O)CN1C(=O)c1cncc(C(F)(F)F)c1 [Example 641, (4R)-N-((R)-(4-chloro-2,5-difluorophenyl)(cyclopropyl)methyl)-4-hydroxy-1-((5-(trifluoromethyl)-3-pyridinyl)carbonyl)-D-prolinamide] | 4.262 µM
18 | Cc1ccc(F)c(CNC(=O)[C@H]2CCCN2C(=O)[C@H]2CCCN(S(=O)(=O)N3CC(C#N)C3)C2)c1 [Example 642, 1-(((3S)-1-((3-cyano-1-azetidinyl)sulfonyl)-3-piperidinyl)carbonyl)-N-(2-fluoro-5-methylbenzyl)-D-prolinamide] | 4.2755 µM
19 | Cc1cccc(CNC(=O)[C@H]2CCCN2C(=O)[C@H]2CCCN(S(=O)(=O)N3CC(C#N)C3)C2)c1 [Example 643, 1-(((3S)-1-((3-cyano-1-azetidinyl)sulfonyl)-3-piperidinyl)carbonyl)-N-(3-methylbenzyl)-D-prolinamide] | 4.3125 µM
20 | N#CC1CN(S(=O)(=O)c2cccc(C(=O)N3CCC[C@@H]3C(=O)NCc3ccc(C(F)(F)F)cn3)c2)C1 [Example 644, 1-((3-((3-cyano-1-azetidinyl)sulfonyl)phenyl)carbonyl)-N-((5-(trifluoromethyl)-2-pyridinyl)methyl)-D-prolinamide] | 4.3367 µM
21 | O=C(NCc1ccc(C(F)(F)F)cc1)[C@H]1CCCN1C(=O)[C@H]1CCCN(S(=O)(=O)NC2CS(=O)(=O)C2)C1 [Example 645, 1-(((3S)-1-((l,l-dioxido-3-thietanyl)sulfamoyl)-3-piperidinyl)carbonyl)-N-(4-(trifluoromethyl)benzyl)-D-prolinamide] | 4.351 µM
